Data published in patent publication US8680073B2, “Stable hyaluronan/steroid formulation” (Genzyme Corporation, priority 2009, dated 2014).

Assays:
Format in all cases: physicochemical
[1] = pH of HA viscosupplement/steroid formulations by heat treatment
Procedure: (§1) We conducted various experiments in which a number of steroids, both soluble and insoluble, were mixed with HA-based viscosupplements, and the heat stability of the HA/steroid formulations were evaluated at 121° C. for 30 min (simulated autoclave conditions), to achieve a bioburden inactivation of approximate 30 Fo, where Fo is the total heat applied during the cycle to achieve a desired probable inactivation ratio). Formulations were also evaluated after heating at 80° C. for 24 hours (simulated two year room temperature shelf-life).
(§2) Compositions retained suitable pH and osmolarity.

[2] = Rheology of HA viscosupplement/steroid formulations by heat treatment; conditions: formulations of HARC with the steroid, compared to control without steroid
Procedure: as §1
Specifically we tested the TAH mixtures with SYNVISC® and hylastan products of Genzyme Corporation, Framingham Mass.^1 The rheological properties of the heat treated SYNVISC®/steroid and hylastan SGL-80/steroid formulations plus their controls are listed in Tables 1a and 1b, respectively, set out below. 1 Synvisc is a gel-like mixture that is made up of hylan A fluid, hylan B gel, and salt water. Hylan A and hylan B are made from a substance called hyaluronan (also known as sodium hyaluronate) from chicken combs.

[3] = Osmolality of HA viscosupplement/steroid formulations by heat treatment
Procedure: as §1, §2

| Change in pH after mixing into the HA-based viscosupplements [1] | Change in osmolality after mixing into the HA-based viscosupplements [3] | Structure (SMILES) | Effect of the steroid on HARC properties after heat treatment [2] |
| --- | --- | --- | --- |
| no significant change | no significant change | CC(C)(C)CC(=O)OCC(=O)[C@@]12OC(C)(C)O[C@@H]1C[C@H]1[C@@H]3CCC4=CC(=O)C=C[C@]4(C)[C@@]3(F)[C@@H](O)C[C@@]12C [TAH, triamcinolone hexacetonide] | behaved to comparably to control formulations having no steroid |
| – | – | CC(=O)OCC(=O)[C@@]1(O)[C@@H](C)C[C@H]2[C@@H]3CCC4=CC(=O)C=C[C@]4(C)[C@@]3(F)[C@@H](O)C[C@@]21C [betamethasone acetate] | interacted with HARC |
| – | – | C[C@H]1C[C@H]2[C@@H]3CCC4=CC(=O)C=C[C@]4(C)[C@@]3(F)[C@@H](O)C[C@]2(C)[C@@]1(O)C(=O)COP(=O)(O)O [betamethasone phosphate] | exacerbated degradation of HARC properties after heat treatment |
